Experiments:
[1] = tested on: AIEC; conditions: CEABAC 10 Crohn's disease model; Sivignon 2015; cited from earlier work
[2] = tested on: cystitis murine model; conditions: Wellens et al., 2008; cited from earlier work
[3] = tested on: AIEC; conditions: Bouckaert et al., 2005, 2013; cited from earlier work
[4] = tested on: isolated E. coli strains; assay: Aggregation assay with EB8018 on the collection of isolated bacterial strains; format: cell-based, Escherichia coli
Source text: 110 E. coli strains from La Girona University (Margarita Medina-Martinez Lab-Girona-Spain) and Cornell (Kenneth Simpson Lab—Ithaca—USA) have been made available through MTA. These isolated strains had been previously extracted from the stool or ileal/colonic biopsies of IBD patients or controls and had been characterised for their AIEC phenotype (for Cornell strains see Dogan B. et al., 2014; Baumgart M. et al., 2007, summarized in the Appendix). Those 110 strains have been sent to SMALTIS (Besangon, France) who is in charge of all laboratory work. An additional 3 non E. coli strains have been ordered as well as LF82 and LF82 deltaFimH that serve as respectively positive and negative controls.
(§1) Three days before aggregation assays, bacterial strains were defrosted on TSA (Tryptone Soya Agar) plates. A first overnight culture was performed by inoculation of 3 mL of LB broth with a single colony of bacteria followed by a second overnight culture (1 mL of the first culture+4 mL LB broth).
(§2) Six concentrations of EB8018 (sample SP-0010269-017 produced by China Gateway) were tested in the aggregation assays (1 nM/10 nM/100 nM/1 μM/10 μM and 100 μM), 500× working solutions were prepared in pure DMSO by 10-fold serial dilutions from a 100 mM stock solution (65 mg EB8018+1 mL DMSO; MEB8018:649.68 g/mol). The 500× working solutions (1 μM, 10 μM, 100 μM, 1 mM, 10 mM and 100 mM) were split into aliquots and stored at −20° C., until use.
(§3) On the day of the test, an aliquot of each EB8018 500× working solution (1 μM, 10 μM, 100 μM, 1 mM, 10 mM and 100 mM) was defrosted and diluted twice in LB medium (1:20 for the first dilution and 1:25 for the second dilution) to obtain respectively six 2× working solutions (2 nM, 20 nM, 200 nM, 2 μM, 20 μM and 200 μM). The second overnight bacterial cultures were diluted in LB medium (50-fold dilution). […] Every hour, each well was observed and the starting time of aggregation was recorded. […] For each concentration and each time point, aggregation was evaluated by a technician. […]

[5] = tested on: bacterial morphotypes isolated from biopsies of CD patients; assay: Aggregation to EB8018 of bacterial morphotypes isolated from MOBIDIC ileal biopsies; format: cell-based; conditions: 106 CD patients with conclusive biopsy results; 10 nM/100 nM/1 μM EB8018
Method: Mucosal specimens, isolated from CD patients have been collected from the MOBIDIC study. For each patient, 4 biopsies were collected, 2 or 3 for further investigations and 1 or 2 as back-up sample stored at Cell&Co (Clermont-Ferrand, France). The ileal specimens were introduced immediately into preweighed vials containing 1.8 mL of refrigerated DMEM with 15% glycerol. The vials were weighed to establish the weight of sample. Ideally, the size of the biopsies must be between 5 and 10 mg. After being frozen at −80° C., vials were sent to Cell&Co and stored at −80° C. upon receipt.
On day 1, biopsies were processed to retrieve adherent bacteria (extract A) and invasive bacteria (extract I). […]
Extracts A and I were cultivated in LB broth for 2×24 hours and on day 3, the LB overnight cultures were used for aggregation assays with EB8018 compound. […] Every hour, bacterial growth was measured and a picture of each well was taken using a SPARK10M. After 5 hours, the microplate was shacked and 10 min after, a picture was taken for aggregation assessment (aggregation was evaluated by a technician with comparison with DMSO). […]
When no aggregation was observed on extracts or in case of inconclusive evaluation (for example with observation of aggregation with the DMSO without any compound), a second biopsy was analysed following the same protocol. […]

[6] = tested on: LF82-ΔFimH; assay: Aggregation assay with EB8018 on negative control strain LF82-ΔFimH; format: cell-based, Escherichia coli; conditions: whatever the concentration tested and whatever the time of incubation
Method: as §1, §2, §3

[7] = tested on: LF82; assay: Aggregation assay with EB8018 on positive control strain LF82; format: cell-based, Escherichia coli
Method: as §1, §2
On the day of the test, an aliquot of each EB8018 500× working solution (1 μM, 10 μM, 100 μM, 1 mM, 10 mM and 100 mM) was defrosted and diluted twice in LB medium (1:20 for the first dilution and 1:25 for the second dilution) to obtain respectively six 2× working solutions (2 nM, 20 nM, 200 nM, 2 μM, 20 μM and 200 μM). The second overnight bacterial cultures were diluted in LB medium (50-fold dilution). Fifty μL of these bacteria dilutions were dispensed into 96-well plates (8 wells/strain). Fifty μL of the EB8018 2× working solutions or fresh LB or LB with 0.2% DMSO were added to the wells. Microplates were incubated for 5 hours at 37° C. under constant shaking (200 rpm). Every hour, each well was observed and the starting time of aggregation was recorded. After 5 hours of incubation, a picture was taken only in wells where an aggregation was observed. For each concentration and each time point, aggregation was evaluated by a technician.
This protocol was applied to the 113 isolated bacterial strains. On each plate, a positive control (LF82) and a negative control (LF82-ΔFimH) were used.

SMILES | effect with AIEC [1] | concentration required for a significant bacterial load reduction [2] | in vitro AIEC adhesion inhibition [3] | share of analyzable strains classified on the grey zone (low aggregation) ([4]; 6 concentrations, every hour for 5 hours) [%] | share of analyzable strains that did not aggregate ([4]; all results negative across 6 concentrations and 5 hours) [%] | share of analyzable strains that did aggregate ([4]; at least one + or +/− across 6 concentrations and 5 hours) [%] | share of patients with at least one morphotype that aggregated [5] [%] | share of patients with no aggregation [5] [%] | aggregation [6] | level of aggregation ([7]; LF82, 1 nM EB8018, after 5 h of incubation) | level of aggregation ([7]; LF82, 10 nM EB8018, after 5 h of incubation) | level of aggregation ([7]; LF82, 100 nM EB8018, after 5 h of incubation) | level of aggregation ([7]; LF82, 1 μM EB8018, after 5 h of incubation) | starting time of aggregation ([7]; LF82 positive control, incubation at 37° C.) [h]
CCCCCCCO[C@H]1O[C@H](CO)[C@@H](O)[C@H](O)[C@@H]1O [Heptylmannose] | no effect | millimolar concentrations are required | potent | – | – | – | – | – | – | – | – | – | – | –
CC(=O)N1CCC2(CC1)c1cc(C#C[C@H]3O[C@H](CO)[C@@H](O)[C@H](O)[C@@H]3O)ccc1-c1ccc(C#C[C@H]3O[C@H](CO)[C@@H](O)[C@H](O)[C@@H]3O)cc12 [EB8018, 1-(2,7-bis(((2R,3S,4R,5S,6R)-3,4,5-trihydroxy-6-(hydroxylmethyl)tetrahydro-2H-pyran-2-yl)ethynyl)spiro[fluorene-9,4′-piperidin]-1′-yl)ethan-1-one] | – | – | – | 13 | 44 | 42 | 65 | 15 | did not aggregate | strong aggregation | strong aggregation | strong aggregation | moderate aggregation | 2

From patent US11898210B2, “Tools for assessing FimH blockers therapeutic efficiency” (ENTEROME, priority 2017, dated 2024)
